Assay results as given in patent publication US20230130579A1, “REGULATION OF POST-ISCHEMIC INFLAMMATORY RESPONSE: A NOVEL FUNCTION OF TYROSINE PHOSPHATASE STEP” (UNM Rainforest Innovations, priority 2020, published 2023).

Columns and labels:
Assay type in all cases: cell-based
COX2 = COX2 protein level by immunoblot in glutamate-treated neuron cultures from STEP KO mice; details: STEP KO mice neurons; 50 μM glutamate 20 min; post-glutamate time 2 h; MK801 5 μM, SB203580 5 μM, Bengamide B 500 nM, TAT-STEP-myc 4 μM
Experimental: Cell culture and stimulation: For cell culture studies adult WT male and female mice and STEP KO male and female mice were mated to generate timed pregnant female mice. The males were removed from the females after 24 h period, which was considered gestational day 1. Pregnancy was verified by the presence of vaginal plugs and/or weight gain. Primary neuronal cultures were obtained from 15-day-old mice embryos as described previously (Deep et al., 2019). Briefly, the striatum and the adjoining cortex was dissected, the tissue dissociated mechanically and resuspended in Dulbecco's modified Eagle's medium/F-12 (1:1) containing 5% fetal calf serum. Cells (6×10^6 cells/dish) were plated on poly-D-lysine-coated tissue culture dishes (BD Biosciences) and grown for 12-14 days at 37° C. in a humidified atmosphere (95:5% air:CO2 mixture). For receptor stimulation cells were treated with glutamate or NMDA for the indicated times and then processed for immunoblot analysis. Glycine concentration in the medium during glutamate treatment was 10 μM. […]
In a parallel series of experiments, we further evaluated the expression of COX2, which is involved in the conversion of AA to prostanoids. […] Cell lysates with equal amount of protein from each sample was analyzed by immunoblotting with anti-COX2 (upper panel) or anti-β-tubulin (lower panel) antibodies. Quantification of COX2 is represented as mean±SEM. *, indicates significant difference from untreated control in STEP KO cultures (p<0.05); ^¶, indicates significant difference from glutamate treated STEP KO cultures (p<0.05).
FIGS. 9A-9D show the role of NFκB activation in glutamate induced COX2 expression and PGE2 release. […] (FIG. 9A-C) Cell lysates with equal amount of protein from each sample was analyzed by immunoblotting with (FIG. 9A, B) anti-IκB-α (upper panel) and anti-β-tubulin (lower panel) antibodies, or (C) anti-COX-2 (upper panel) and anti-β-tubulin (lower panel) antibodies. […] (FIG. 9D) Equal amount of culture medium from each sample was analyzed for PGE2 levels using ELISA. […]

PGE2 = PGE2 release into culture medium by ELISA, glutamate-treated neuron cultures from STEP KO mice; details: STEP KO mice neurons; 50 μM glutamate; 2 h; MK801 5 μM, SB203580 5 μM, CAY10404 100 nM, Bengamide B 500 nM
Experimental: Cell culture and stimulation: For cell culture studies adult WT male and female mice and STEP KO male and female mice were mated to generate timed pregnant female mice. The males were removed from the females after 24 h period, which was considered gestational day 1. Pregnancy was verified by the presence of vaginal plugs and/or weight gain. Primary neuronal cultures were obtained from 15-day-old mice embryos as described previously (Deep et al., 2019). Briefly, the striatum and the adjoining cortex was dissected, the tissue dissociated mechanically and resuspended in Dulbecco's modified Eagle's medium/F-12 (1:1) containing 5% fetal calf serum. Cells (6×10^6 cells/dish) were plated on poly-D-lysine-coated tissue culture dishes (BD Biosciences) and grown for 12-14 days at 37° C. in a humidified atmosphere (95:5% air:CO2 mixture). For receptor stimulation cells were treated with glutamate or NMDA for the indicated times and then processed for immunoblot analysis. Glycine concentration in the medium during glutamate treatment was 10 μM. In some experiments, DL-2-amino-5-phosphonopentanoic acid (APV, 200 μM), MK-801 (5 μM), SB203580 (5 μM), CAY10404 (100 nM) or Bengamide B (500 nM) were added […] 10 min before addition of glutamate. Some cultures were treated with the TAT-STEP-myc peptide (4 μM) prior glutamate treatment.
For measurement of PGE2 and soluble CX3CL1 levels released from neurons, culture medium was collected from each experimental plate and centrifuged at 200 g for 5 min to remove cellular debris. […] PGE2 level was assessed using the PGE2 enzyme-linked immunosorbent assay (ELISA) kit (Cat #: K051-H1) from Arbor assays (Ann Arbor, Mich., USA), according to the manufacturer's instructions. Soluble CX3CL1 level was assessed using the ELISA kit (Cat #: MCX310) from R&D systems (Minneapolis, Minn., USA), according to the manufacturer's instructions.
To evaluate the effect of STEP gene deletion on glutamate-mediated PGE2 release in subsequent studies neuron cultures from WT or STEP KO mice were treated with 50 μM glutamate (Glu) for 20 min and then maintained in its original medium for the specified times (post-glutamate time: 2 h and 4 h). […] Equal amount of culture medium from each sample was analyzed for PGE2 levels using ELISA. Values are expressed as mean±SEM. *, indicates significant difference from untreated control in STEP KO cultures (p<0.05); ^¶, indicates significant difference from glutamate treated STEP KO cultures (p<0.05). […]
FIGS. 9A-9D show the role of NFκB activation in glutamate induced COX2 expression and PGE2 release. […] Quantification of IκB-α and COX-2 are represented as mean±SEM. *, indicates significant difference from untreated control in STEP KO culture (p<0.05); ^¶, indicates significant difference from glutamate treated STEP KO culture. […]

cPLA2 = cPLA2 activity assay in glutamate-treated neuron cultures from STEP KO mice; details: STEP KO mice neurons; 50 μM glutamate 20 min; MK801 5 μM or SB 203580 5 μM; 2 h after the insult
Experimental: (§1) Cell culture and stimulation: For cell culture studies adult WT male and female mice and STEP KO male and female mice were mated to generate timed pregnant female mice. The males were removed from the females after 24 h period, which was considered gestational day 1. Pregnancy was verified by the presence of vaginal plugs and/or weight gain. Primary neuronal cultures were obtained from 15-day-old mice embryos as described previously (Deep et al., 2019). Briefly, the striatum and the adjoining cortex was dissected, the tissue dissociated mechanically and resuspended in Dulbecco's modified Eagle's medium/F-12 (1:1) containing 5% fetal calf serum. […]
In FIG. 5A, neuron cultures from WT or STEP KO mice were treated with 50 μM glutamate (Glu) for 20 min and then maintained in its original medium for the specified time (2 h and 4 h). […] Cell lysates with equal amount of protein from each sample was analyzed for cPLA2 activity using enzymatic assay. Values are expressed as mean±SEM. *, indicates significant difference from untreated control in WT cultures (p<0.05); ^Δ, indicates significant difference from untreated control in STEP KO cultures (p<0.05); ^¶, significant difference from 20 min glutamate treatment in STEP KO cultures (p<0.05). […]

IκB-α = assay: IκB degradation (NF-κB activation) by immunoblot in glutamate-treated neuron cultures from STEP KO mice; details: STEP KO mice neurons; 50 μM glutamate; 2 h
Experimental: as §1
Earlier studies have shown that the nuclear factor kappa B (NF-κB) is a key regulator of COX2 expression in different cell types (Yamamoto et al., 1995; Kaltschmidt et al., 2002; Guo et al., 2013; Ackerman et al., 2008; Shi et al., 2015), and the ionotropic glutamate receptors is one of the activators of NF-κB in neurons (Kaltschmidt et al., 2005). To clarify the role of NF-κB in glutamate-NMDAR induced activation of the COX-2-PGE2 signaling pathway in STEP KO mice neurons, we next evaluated the effect of glutamate on IκB degradation, a seminal step in NF-κB activation (Karin and Ben-Neriah 2000; Rajagopal et al., 2019). […]

CCCCCCCCCCCCCC(=O)O[C@H]1CC[C@H](NC(=O)[C@H](OC)[C@H](O)[C@@H](O)[C@H](O)/C=C/C(C)C)C(=O)N(C)C1 [Bengamide B]
glutamate-induced increase in COX2 level (COX2): attenuated | glutamate-induced PGE2 release (PGE2): significant reduction

CS(=O)(=O)c1ccc(-c2noc(C(F)(F)F)c2-c2ccccc2)cc1 [CAY10404]
glutamate-induced PGE2 release (PGE2): significantly reduced

C[C@]12N[C@H](Cc3ccccc31)c1ccccc12 [MK801, MK-801]
glutamate-induced increase in COX2 level (COX2): attenuated | glutamate-induced PGE2 release (PGE2): significantly reduced | cPLA2 activity (cPLA2): significantly reduced | glutamate-induced IκB degradation (IκB-α): effectively blocked

C[S+]([O-])c1ccc(-c2nc(-c3ccncc3)c(-c3ccc(F)cc3)[nH]2)cc1 (centres unmarked) [SB 203580, SB203580]
glutamate-induced increase in COX2 level (COX2): attenuated | glutamate-induced PGE2 release (PGE2): significantly reduced | cPLA2 activity (cPLA2): significantly reduced | glutamate-induced IκB degradation (IκB-α): effectively blocked
